Experimental data published in patent US7211572B2 (Japan Tobacco Inc., priority 2003, dated 2007).
Structures can show the parent of a compound that is named as a salt.

target: T1, HIV integrase (Human immunodeficiency virus type 1 group M subtype B, UniProt P12497, F1332H); experiment: Determination of enzyme (HIV integrase) inhibitory activity; assay type: biochemical; conditions: recombinant HIV integrase (F185H), strand transfer ELISA, absorbance at 450 nm
T1 construct: HIV integrase full length gene; made in house; host or cells: Escherichia coli BL21(DE3), plasmid pET21a-INH
Source text: The following explains evaluation methods of the HIV integrase inhibitory activity of the compound of the present invention.
(i) Construction of Recombinant Integrase Gene Expression System
The 185th phenylalanine of HIV integrase full length gene (J. Virol., 67, 425–437 (1993)) was substituted by histidine and inserted into the restriction enzyme NdeI and XhoI sites of plasmid pET21a(+) (Novagen), whereby an integrase expression vector pET21a-INH was constructed.
(ii) Production and Purification of Integrase Protein
Escherichia coli recombinant BL21(DE3) transformed with plasmid pET21a-INH obtained in (i) was shake cultured at 37° C. in a liquid medium containing ampicillin. When the culture reached the logarithmic growth phase, isopropyl-β-D-thiogalactopyranoside was added to promote expression of integrase gene. The culture was continued for 3 hr to promote accumulation of the integrase protein. The recombinant E. coli was collected in pellets by centrifugal separation and preserved at −80° C.
The E. coli was suspended in Lysis buffer (20 mM HEPES (pH 7.5), 5 mM DTT, 10 mM CHAPS, 10% glycerol) containing 1M sodium chloride and subjected to repeat pressurization and depressurization for rupture, and centrifugal separation at 4° C., 40,000×g, 60 min to recover a water-soluble fraction (supernatant). This was diluted 10-fold with Lysis buffer free of sodium chloride, mixed with SP-Sepharose (Pharmacia Corporation) and stirred at 4° C. for 30 min to allow adsorption of integrase protein to the resin. The resin was washed with Lysis buffer containing 100 mM sodium chloride and the integrase protein was eluted with Lysis buffer containing 1M sodium chloride.
The eluted integrase protein solution was applied to a Superdex 75 (Pharmacia Corporation) column for gel filtration. The protein was eluted with Lysis buffer containing 1M sodium chloride.
The obtained fractions of the integrase protein were collected and preserved at −80° C.
(iii) Preparation of DNA Solution
The following DNA synthesized by Greiner was dissolved in TE buffer (10 mM Tris-hydrochloric acid (pH 8.0), 1 mM EDTA) and mixed with donor DNA, target DNA, and each complementary strand (+ and − strands) to 1 μM. The mixture was heated at 95° C. for 5 min, 80° C. for 10 min, 70° C. for 10 min, 60° C. for 10 min, 50° C. for 10 min and 40° C. for 10 min and preserved at 25° C. to give a double stranded DNA, which was used for the test.
Donor DNA (− strand having biotin attached to the 5′ terminal)
(iv) Determination of Enzyme (HIV Integrase) Inhibitory Activity
The donor DNA was diluted with TE buffer to 10 nM, of which 50 μl was added to each well of streptavidin-coated microtiter plate (Roche) and allowed to adsorb at 37° C. for 60 min. The DNA was washed with phosphate buffer (Dulbecco PBS, Sanko Junyaku Co., Ltd.) containing 0.1% Tween 20 and phosphate buffer. Then, a reaction mixture (70 μl) having the following composition, a test substance (10 μl) diluted with the reaction mixture and 100 μg/ml integrase protein (10 μl) were added to each well and reacted at 37° C. for 60 min.
Composition of the reaction mixture: 30 mM MOPS (3-morpholinopropanesulfonic acid), 5 mM magnesium chloride, 3 mM DTT (dithiothreitol), 0.1 mg/ml BSA (bovine serum albumin), 5% glycerol, 10% DMSO (dimethyl sulfoxide), 0.01% Tween 20.
Then, 50 nM target DNA (10 μl) was added, reacted at 37° C. for 10 min and washed with phosphate buffer containing 0.1% Tween 20 to stop the reaction.
Then, 100 mU/ml peroxidase labeled anti-digoxigenin antibody solution (Roche, 100 μl) was added, and the mixture was reacted at 30° C. for 60 min, followed by washing with phosphate buffer containing 0.1% Tween 20.
A peroxidase color solution (Bio Rad, 100 μl) was added and allowed to react at room temperature for 4 min. The color reaction was stopped by adding 1N sulfuric acid (100 μl). The absorbance at 450 nm was measured. […]

Row | Compound | IC50
1 | CCN(CC)C(=O)c1cc(=O)c(O)c2n1CCN(Cc1ccc(Cl)c(Cl)c1)C2=O [Example 61, N,N-diethyl-2-(3,4-dichlorobenzyl)-9-hydroxy-1,8-dioxo-1,3,4,8-tetrahydro-2H-pyrido[1,2-a]pyrazine-6-carboxamide] | 10 to 100 nM
2 | CC(C)N(C)C(=O)c1cc(=O)c(O)c2n1CCN(Cc1ccc(Cl)c(Cl)c1)C2=O [Example 62, N-isopropyl-N-methyl-2-(3,4-dichlorobenzyl)-9-hydroxy-1,8-dioxo-1,3,4,8-tetrahydro-2H-pyrido[1,2-a]pyrazine-6-carboxamide] | 10 to 100 nM
3 | CCN(C)C(=O)c1cc(=O)c(O)c2n1CCN(Cc1ccc(Cl)c(Cl)c1)C2=O [Example 63, N-ethyl-N-methyl-2-(3,4-dichlorobenzyl)-9-hydroxy-1,8-dioxo-1,3,4,8-tetrahydro-2H-pyrido[1,2-a]pyrazine-6-carboxamide] | < 10 nM
4 | O=C1c2c(O)c(=O)ccn2CCN1Cc1ccc(F)c(Cl)c1 [Example 64, 2-(3-chloro-4-fluorobenzyl)-9-hydroxy-3,4-dihydro-2H-pyrido[1,2-a]pyrazine-1,8-dione] | 10 to 100 nM
5 | O=C1c2c(O)c(=O)ccn2CCN1Cc1ccccc1Cl [Example 65, 2-(2-chlorobenzyl)-9-hydroxy-3,4-dihydro-2H-pyrido[1,2-a]pyrazine-1,8-dione] | 100 to 1000 nM
6 | O=C1c2c(O)c(=O)ccn2CCN1Cc1cc(Cl)cc(Cl)c1 [Example 66, 2-(3,5-dichlorobenzyl)-9-hydroxy-3,4-dihydro-2H-pyrido[1,2-a]pyrazine-1,8-dione] | 10 to 100 nM
7 | CC(C)(C)c1cc(=O)c(O)c2n1CCN(Cc1ccc(Cl)c(Cl)c1)C2=O [Example 67, 6-tert-butyl-2-(3,4-dichlorobenzyl)-9-hydroxy-3,4-dihydro-2H-pyrido[1,2-a]pyrazine-1,8-dione] | 10 to 100 nM
8 | CC(C)(C)C(O)c1cc(=O)c(O)c2n1CCN(Cc1ccc(Cl)c(Cl)c1)C2=O (stereo not drawn) [Example 68, 2-(3,4-dichlorobenzyl)-9-hydroxy-6-(1-hydroxy-2,2-dimethylpropyl)-3,4-dihydro-2H-pyrido[1,2-a]pyrazine-1,8-dione] | 10 to 100 nM
9 | O=c1ccn2ccn(CCCc3ccc(Cl)cc3)c(=O)c2c1O [Example 70, 2-[3-(4-chlorophenyl)propyl]-9-hydroxy-2H-pyrido[1,2-a]pyrazine-1,8-dione] | 10 to 100 nM
10 | O=c1ccn2ccn(CCCc3ccccc3Cl)c(=O)c2c1O [Example 71, 2-[3-(2-chlorophenyl)propyl]-9-hydroxy-2H-pyrido[1,2-a]pyrazine-1,8-dione] | 10 to 100 nM
11 | Cc1cn(Cc2ccc(Cl)c(Cl)c2)c(=O)c2c(O)c(=O)ccn12 [Example 72, 2-(3,4-dichlorobenzyl)-9-hydroxy-4-methyl-2H-pyrido[1,2-a]pyrazine-1,8-dione hydrochloride] | < 10 nM
12 | COc1ccc(CN2CCn3ccc(=O)c(O)c3C2=O)cc1Cl [Example 73, 2-(3-chloro-4-methoxybenzyl)-9-hydroxy-3,4-dihydro-2H-pyrido[1,2-a]pyrazine-1,8-dione] | 10 to 100 nM
13 | N#CCc1cc(=O)c(O)c2n1CCN(Cc1ccc(Cl)c(Cl)c1)C2=O [Example 75, [2-(3,4-dichlorobenzyl)-9-hydroxy-1,8-dioxo-1,3,4,8-tetrahydro-2H-pyrido[1,2-a]pyrazin-6-yl]acetonitrile] | 10 to 100 nM
14 | O=c1ccn2ccn(CCCc3cccc(Cl)c3)c(=O)c2c1O [Example 76, 2-[3-(3-chlorophenyl)propyl]-9-hydroxy-2H-pyrido[1,2-a]pyrazine-1,8-dione] | 10 to 100 nM
15 | CC(C)c1cn(Cc2ccc(Cl)c(Cl)c2)c(=O)c2c(O)c(=O)ccn12 [Example 78, 2-(3,4-dichlorobenzyl)-9-hydroxy-4-isopropyl-2H-pyrido[1,2-a]pyrazine-1,8-dione] | < 10 nM
16 | O=c1ccn2ccn(CCCc3ccc(Cl)c(Cl)c3)c(=O)c2c1O [Example 79, 2-[3-(3,4-dichlorophenyl)propyl]-9-hydroxy-2H-pyrido[1,2-a]pyrazine-1,8-dione] | 10 to 100 nM
17 | O=c1ccn2ccn(CCCc3cc(Cl)cc(Cl)c3)c(=O)c2c1O [Example 80, 2-[3-(3,5-dichlorophenyl)propyl]-9-hydroxy-2H-pyrido[1,2-a]pyrazine-1,8-dione] | 10 to 100 nM
18 | O=C(Cc1cc(=O)c(O)c2n1CCN(Cc1ccc(Cl)c(Cl)c1)C2=O)OCc1ccccc1 [Example 81] | < 10 nM
19 | O=C(OCc1ccccc1)C(Cc1ccccc1)c1cc(=O)c(O)c2n1CCN(Cc1ccc(Cl)c(Cl)c1)C2=O (stereo not drawn) [Example 82, benzyl 2-[2-(3,4-dichlorobenzyl)-9-hydroxy-1,8-dioxo-1,3,4,8-tetrahydro-2H-pyrido[1,2-a]pyrazin-6-yl]-3-phenylpropionate] | 10 to 100 nM
20 | O=C1c2c(O)c(=O)cc(CCO)n2CCN1Cc1ccc(Cl)c(Cl)c1 [Example 83, 2-(3,4-dichlorobenzyl)-9-hydroxy-6-(2-hydroxyethyl)-3,4-dihydro-2H-pyrido[1,2-a]pyrazine-1,8-dione] | 10 to 100 nM
21 | CCCc1cn(Cc2ccc(Cl)c(Cl)c2)c(=O)c2c(O)c(=O)ccn12 [Example 84, 2-(3,4-dichlorobenzyl)-9-hydroxy-4-propyl-2H-pyrido[1,2-a]pyrazine-1,8-dione] | < 10 nM
22 | CCc1cn(Cc2ccc(Cl)c(Cl)c2)c(=O)c2c(O)c(=O)ccn12 [Example 85, 2-(3,4-dichlorobenzyl)-4-ethyl-9-hydroxy-2H-pyrido[1,2-a]pyrazine-1,8-dione] | 10 to 100 nM
23 | O=c1ccn2c(CO)cn(Cc3ccc(Cl)c(Cl)c3)c(=O)c2c1O [Example 86, 2-(3,4-dichlorobenzyl)-9-hydroxy-4-hydroxymethyl-2H-pyrido[1,2-a]pyrazine-1,8-dione] | < 10 nM
24 | CC(C)Cc1cn(Cc2ccc(Cl)c(Cl)c2)c(=O)c2c(O)c(=O)ccn12 [Example 87, 2-(3,4-dichlorobenzyl)-9-hydroxy-4-isobutyl-2H-pyrido[1,2-a]pyrazine-1,8-dione] | < 10 nM
25 | O=c1ccn2ccn(Cc3cccc(Cl)c3)c(=O)c2c1O [Example 88, 2-(3-chlorobenzyl)-9-hydroxy-2H-pyrido[1,2-a]pyrazine-1,8-dione hydrochloride] | 10 to 100 nM
26 | COC(=O)c1cn(Cc2ccc(Cl)c(Cl)c2)c(=O)c2c(O)c(=O)ccn12 [Example 89, methyl 2-(3,4-dichlorobenzyl)-9-hydroxy-1,8-dioxo-1,8-dihydro-2H-pyrido[1,2-a]pyrazine-4-carboxylate] | 10 to 100 nM
27 | O=c1ccn2ccn(Cc3ccc(F)c(Cl)c3)c(=O)c2c1O [Example 90, 2-(3-chloro-4-fluorobenzyl)-9-hydroxy-2H-pyrido[1,2-a]pyrazine-1,8-dione hydrochloride] | < 10 nM
28 | O=c1ccn2ccn(CCCc3cccc(Cl)c3Cl)c(=O)c2c1O [Example 91, 2-[3-(2,3-dichlorophenyl)propyl]-9-hydroxy-2H-pyrido[1,2-a]pyrazine-1,8-dione hydrochloride] | 10 to 100 nM
29 | CC(C)c1cn(Cc2ccc(F)c(Cl)c2)c(=O)c2c(O)c(=O)ccn12 [Example 92, 2-(3-chloro-4-fluorobenzyl)-9-hydroxy-4-isopropyl-2H-pyrido[1,2-a]pyrazine-1,8-dione hydrochloride] | < 10 nM
30 | COC(=O)c1cn(Cc2cccc(Cl)c2)c(=O)c2c(O)c(=O)ccn12 [Example 93, methyl 2-(3-chlorobenzyl)-9-hydroxy-1,8-dioxo-1,8-dihydro-2H-pyrido[1,2-a]pyrazine-4-carboxylate] | 10 to 100 nM
